Experimental findings from article PMC3440086, “Profiling Environmental Chemicals for Activity in the Antioxidant Response Element Signaling Pathway Using a High Throughput Screening Approach” (Environmental Health Perspectives, 2012) are described below.

“Also recorded” adds a separate entry of the source.

For one experiment, the system named is Nrf2-dependent ARE transcriptional activity. The experiment is described as follows: ARE-luc luciferase reporter gene assay in HepG2 cells (qHTS). It counts as cell-based. Conditions: Homo sapiens, HepG2; confirmation/follow-up studies; […]; read-out: ARE-luc Efficacy.
In the case of `Nc1ccc(Cl)cc1N` [4-Chloro-o-phenylenediamine], the Emax was 111%.

Take `ClC1=C(Cl)[C@]2(Cl)[C@@H]3[C@@H]4C[C@@H]([C@H]5O[C@@H]45)[C@@H]3[C@@]1(Cl)C2(Cl)Cl` [Dieldrin]: the Emax turned out to be 27%.

For `CN1CSC(=S)N(C)C1` [Dazomet], the Emax came to 22%.

The experiment is the same for the next values; noted with them: Homo sapiens; confirmation/follow-up studies, HepG2, 16 hr exposure, mean ± SD; read-out: ARE-luc EC50.
Take `Nc1ccc(Cl)cc1N` [4-Chloro-o-phenylenediamine]: the 50% effective concentration (EC50) amounted to 27.2 ± 3.7 µM.

As to `ClC1=C(Cl)[C@]2(Cl)[C@@H]3[C@@H]4C[C@@H]([C@H]5O[C@@H]45)[C@@H]3[C@@]1(Cl)C2(Cl)Cl` [Dieldrin], the EC50 amounted to 14.2 ± 15 µM.

For the compound `CN1CSC(=S)N(C)C1` [Dazomet], the EC50 was 26.6 ± 2.2 µM.

Still in this experiment, the particulars now being: confirmation/follow-up studies, HepG2, 16 hr exposure, mean ± SD.
With `CC(C)(c1ccc(O)cc1)c1ccc(O)cc1` [Bisphenol A], the “ARE-luc EC50” value was “inactive”.

Take `O.c1cnc2c(c1)ccc1cccnc12` [1,10-Phenanthroline monohydrate]: the “ARE-luc EC50” value was “inactive”.

`c1ccc2ncccc2c1` [Quinoline]: the “ARE-luc EC50” value was “inactive”.

Staying with this experiment, now noted: confirmation/follow-up studies, HepG2, 16 hr exposure, mean ± SD; read-out: ARE-luc EC50.
As to `CN(C)C(=S)SSC(=S)N(C)C` [Tetramethylthiuram disulfide], the EC50 came out at 30.6 ± 5.2 µM.

On to `Nc1ccccc1N` [o-Phenylenediamine], for which the EC50 is 27.3 ± 4.7 µM.

The experiment is the same for the next values; noted with them: confirmation/follow-up studies; […].
Regarding `CN(C)C(=S)SSC(=S)N(C)C` [Tetramethylthiuram disulfide], the “ARE-luc Efficacy” value worked out at 265%.

Turning to `Nc1ccccc1N` [o-Phenylenediamine], the “ARE-luc Efficacy” value is given as 151%.

The experiment is the same for the next values; noted with them: follow-up studies, up to 46 µM.
As to `O.c1cnc2c(c1)ccc1cccnc12` [1,10-Phenanthroline monohydrate], the “activity in ARE-luc assay (words)” value was “inactive in all assays”.

As to `CN(C)c1cccc(O)c1` [3-Dimethylaminophenol], the “activity in ARE-luc assay (words)” value is “inactive in all assays”.

With `c1ccc2ncccc2c1` [Quinoline], the “activity in ARE-luc assay (words)” value was “inactive in all assays”.

As to `CC(C)CC(C)Nc1ccc(Nc2ccccc2)cc1` (stereo not drawn) [n-(1,3-Dimethylbutyl)-n`-phenyl-p-phenylenediamine], the “activity in ARE-luc assay (words)” value is “inactive”.

The same experiment, now with this note: follow-up studies, up to 46 µM; listed as 1,10-phenanthroline monohydrate.
Turning to `O.c1cnc2c(c1)ccc1cccnc12` [1,10-Phenanthroline monohydrate], the “activity in ARE-luc assay (words)” value was “inactive across all assays”.

The same experiment, now with this note: follow-up studies, up to 46 µM; listed as 3-dimethylaminophenol.
Take `CN(C)c1cccc(O)c1` [3-Dimethylaminophenol]: the “activity in ARE-luc assay (words)” value is “inactive”.

The same experiment, now with this note: follow-up studies, up to 46 µM; listed as quinoline.
Take `c1ccc2ncccc2c1` [Quinoline]: the “activity in ARE-luc assay (words)” value was “inactive across all assays”.

Staying with this experiment, now noted: primary qHTS screening, 0.59 nM to 92 µM.
In the case of `CC(C)CC(C)Nc1ccc(Nc2ccccc2)cc1` (stereo not drawn) [n-(1,3-Dimethylbutyl)-n`-phenyl-p-phenylenediamine], the “activity in ARE-luc assay (words)” value is recorded as “active”.

In the case of `C[S@@+]([O-])CCCCN=C=S` [L-sulforaphane], the “activity in ARE-luc assay (words)” value was “active”.

Regarding `Oc1ccc(/C=C/c2cc(O)cc(O)c2)cc1` [resveratrol], the “activity in ARE-luc assay (words)” value is “active”.

The same experiment, now with this note: primary screening, positive control across all 18 plates; read-out: average EC50 in ARE-luc assay.
Turning to `O=c1cc(-c2ccccc2)oc2ccc3ccccc3c12` [β-Napthoflavone, reference compound], the EC50 is 5.2 µM.

A further experiment deals with antioxidant response element (ARE) signaling pathway. The experiment in a line: ARE-bla β-lactamase reporter gene assay in HepG2 cells (qHTS). It counts as cell-based, human. Conditions: Homo sapiens, HepG2, 16 h, read-out: ARE-bla EC50.
Regarding `CC(C)Nc1ccc(Nc2ccccc2)cc1` [N-Isopropyl-N'-phenyl-p-phenylenediamine], the half-maximal effective concentration (EC50) amounted to 13.1 ± 8.9 µM.

The experiment is the same for the next values; noted with them: Homo sapiens, HepG2, confirmation/follow-up studies; activation of ARE reporter as % of positive control (β-napthoflavone); read-out: ARE-bla Efficacy.
For `CC(C)(c1ccc(O)cc1)c1ccc(O)cc1` [Bisphenol A], the Emax came to 48%.

Turning to `CC(C)CC(C)Nc1ccc(Nc2ccccc2)cc1` (stereo not drawn) [n-(1,3-Dimethylbutyl)-n`-phenyl-p-phenylenediamine], the Emax turned out to be 89%.

Still in this experiment, the particulars now being: Homo sapiens, HepG2, read-out: ARE-bla Efficacy.
For `CC(C)Nc1ccc(Nc2ccccc2)cc1` [N-Isopropyl-N'-phenyl-p-phenylenediamine], the Emax was 71%.

Still in this experiment, the particulars now being: Homo sapiens, HepG2; confirmation/follow-up studies; […]; read-out: ARE-bla Efficacy.
As to `ClC1=C(Cl)[C@]2(Cl)[C@@H]3[C@@H]4C[C@@H]([C@H]5O[C@@H]45)[C@@H]3[C@@]1(Cl)C2(Cl)Cl` [Dieldrin], the Emax came out at 40%.

With `CN1CSC(=S)N(C)C1` [Dazomet], the Emax was 55%.

Still in this experiment, the particulars now being: Homo sapiens; confirmation/follow-up studies, HepG2, 16 hr exposure, mean ± SD; read-out: ARE-bla EC50.
For the compound `CC(C)(c1ccc(O)cc1)c1ccc(O)cc1` [Bisphenol A], the EC50 came out at 12.5 ± 5.6 µM.

In the case of `ClC1=C(Cl)[C@]2(Cl)[C@@H]3[C@@H]4C[C@@H]([C@H]5O[C@@H]45)[C@@H]3[C@@]1(Cl)C2(Cl)Cl` [Dieldrin], the half-maximal effective concentration (EC50) worked out at 15.5 ± 11.8 µM.

In the case of `CC(C)CC(C)Nc1ccc(Nc2ccccc2)cc1` (stereo not drawn) [n-(1,3-Dimethylbutyl)-n`-phenyl-p-phenylenediamine], the EC50 is 17.3 ± 5 µM.

`CN1CSC(=S)N(C)C1` [Dazomet]: the concentration giving a half-maximal response (EC50) amounted to 20.1 ± 6.6 µM.

The same experiment, now with this note: confirmation/follow-up studies, HepG2, 16 hr exposure, mean ± SD.
Turning to `c1ccc2ncccc2c1` [Quinoline], the “ARE-bla EC50” value was “inactive”.

Still in this experiment, the particulars now being: confirmation/follow-up studies, HepG2, 16 hr exposure, mean ± SD; read-out: ARE-bla EC50.
For the compound `CN(C)C(=S)SSC(=S)N(C)C` [Tetramethylthiuram disulfide], the concentration for a half-maximal effect (EC50) was found to be 17.2 ± 4.9 µM.

On to `Nc1ccccc1N` [o-Phenylenediamine], for which the EC50 came to 7.2 ± 4.1 µM.

The experiment is the same for the next values; noted with them: confirmation/follow-up studies; […].
For the compound `CN(C)C(=S)SSC(=S)N(C)C` [Tetramethylthiuram disulfide], the “ARE-bla Efficacy” value was 35%.

As to `Nc1ccccc1N` [o-Phenylenediamine], the “ARE-bla Efficacy” value amounted to 72%.

The same experiment, now with this note: follow-up studies, up to 46 µM.
Regarding `O.c1cnc2c(c1)ccc1cccnc12` [1,10-Phenanthroline monohydrate], the “activity in ARE-bla assay (words)” value is “inactive in all assays”.

Turning to `CN(C)c1cccc(O)c1` [3-Dimethylaminophenol], the “activity in ARE-bla assay (words)” value is “inactive in all assays”.

For the compound `c1ccc2ncccc2c1` [Quinoline], the “activity in ARE-bla assay (words)” value is “inactive in all assays”.

For the compound `Nc1ccc(Cl)cc1N` [4-Chloro-o-phenylenediamine], the “activity in ARE-bla assay (words)” value is “inactive”.

Staying with this experiment, now noted: follow-up studies, up to 46 µM; listed as 1,10-phenanthroline monohydrate.
On to `O.c1cnc2c(c1)ccc1cccnc12` [1,10-Phenanthroline monohydrate], for which the “activity in ARE-bla assay (words)” value was “inactive across all assays”.

Still in this experiment, the particulars now being: follow-up studies, up to 46 µM; listed as 3-dimethylaminophenol.
`CN(C)c1cccc(O)c1` [3-Dimethylaminophenol]: the “activity in ARE-bla assay (words)” value was “inactive”.

The experiment is the same for the next values; noted with them: follow-up studies, up to 46 µM; listed as quinoline.
As for `c1ccc2ncccc2c1` [Quinoline], the “activity in ARE-bla assay (words)” value is “inactive across all assays”.

Staying with this experiment, now noted: primary qHTS screening, 0.59 nM to 92 µM.
Consider `O.c1cnc2c(c1)ccc1cccnc12` [1,10-Phenanthroline monohydrate], for which the “activity in ARE-bla assay (words)” value is “showed activity”.

Consider `Nc1ccc(Cl)cc1N` [4-Chloro-o-phenylenediamine], for which the “activity in ARE-bla assay (words)” value is “showed activity”.

Turning to `C[S@@+]([O-])CCCCN=C=S` [L-sulforaphane], the “activity in ARE-bla assay (words)” value is “active”.

As for `Oc1ccc(/C=C/c2cc(O)cc(O)c2)cc1` [resveratrol], the “activity in ARE-bla assay (words)” value is on record as “active”.

Staying with this experiment, now noted: primary screening, positive control across all 18 plates; read-out: average EC50 in ARE-bla assay.
As to `O=c1cc(-c2ccccc2)oc2ccc3ccccc3c12` [β-Napthoflavone, reference compound], the concentration giving a half-maximal response (EC50) is 2.1 µM.

Another experiment concerns mutated ARE.
Test: not given
Type of experiment: cell-based.
Settings: not given
On to `c1ccc2ncccc2c1` [Quinoline], for which the “ARE-bla mutant IC50” value was “inactive” and the “activity in ARE-bla-mut assay (words)” value was “inactive across all assays; also recorded: inactive in all assays”.

For `CC(C)Nc1ccc(Nc2ccccc2)cc1` [N-Isopropyl-N'-phenyl-p-phenylenediamine], the “ARE-bla mutant IC50” value was “inactive”.

The same experiment, now with this note: confirmation/follow-up studies, HepG2, mean ± SD.
Regarding `CC(C)(c1ccc(O)cc1)c1ccc(O)cc1` [Bisphenol A], the “ARE-bla mutant IC50” value is “inactive”.

As to `O.c1cnc2c(c1)ccc1cccnc12` [1,10-Phenanthroline monohydrate], the “ARE-bla mutant IC50” value is “inactive”.

Take `CN(C)c1cccc(O)c1` [3-Dimethylaminophenol]: the “ARE-bla mutant IC50” value was “inactive”.

With `Nc1ccc(Cl)cc1N` [4-Chloro-o-phenylenediamine], the “ARE-bla mutant IC50” value is “inactive”.

With `ClC1=C(Cl)[C@]2(Cl)[C@@H]3[C@@H]4C[C@@H]([C@H]5O[C@@H]45)[C@@H]3[C@@]1(Cl)C2(Cl)Cl` [Dieldrin], the “ARE-bla mutant IC50” value is “inactive”.

Turning to `CN(C)C(=S)SSC(=S)N(C)C` [Tetramethylthiuram disulfide], the “ARE-bla mutant IC50” value is “inactive”.

In the case of `CC(C)CC(C)Nc1ccc(Nc2ccccc2)cc1` (stereo not drawn) [n-(1,3-Dimethylbutyl)-n`-phenyl-p-phenylenediamine], the “ARE-bla mutant IC50” value was “inactive”.

Take `Nc1ccccc1N` [o-Phenylenediamine]: the “ARE-bla mutant IC50” value is “inactive”.

Consider `CN1CSC(=S)N(C)C1` [Dazomet], for which the “ARE-bla mutant IC50” value was “inactive”.

The experiment is the same for the next values; noted with them: follow-up studies, up to 46 µM.
In the case of `O.c1cnc2c(c1)ccc1cccnc12` [1,10-Phenanthroline monohydrate], the “activity in ARE-bla-mut assay (words)” value was “inactive in all assays”.

On to `CN(C)c1cccc(O)c1` [3-Dimethylaminophenol], for which the “activity in ARE-bla-mut assay (words)” value is “inactive in all assays”.

The same experiment, now with this note: follow-up studies, up to 46 µM; listed as 1,10-phenanthroline monohydrate.
Turning to `O.c1cnc2c(c1)ccc1cccnc12` [1,10-Phenanthroline monohydrate], the “activity in ARE-bla-mut assay (words)” value was “inactive across all assays”.
